Test: molar heat capacity at constant pressure
Settings: 101.33 kPa, Crystal, Vacuum adiabatic calorimetry

O=C([O-])c1cnccn1.O=C([O-])c1cnccn1.O=C([O-])c1cnccn1.[Cr+3] [chromium(III) pyrazine-2-carboxylate]
Settings | molar heat capacity at constant pressure [J/K/mol]
78.86 K | 155.98
80 K | 158.16
80.64 K | 158.92
83.3 K | 162.11
85 K | 164.76
85.88 K | 166.03
88.38 K | 169.59
90 K | 171.35
90.8 K | 172.28
93.14 K | 175.35
95 K | 177.94
95.47 K | 178.53
97.73 K | 181.47
99.91 K | 184.54
100 K | 184.53
102.06 K | 187.64
104.19 K | 189.79
105 K | 191.12
106.26 K | 192.72
108.39 K | 195.56
110 K | 197.7
110.39 K | 198.32
112.38 K | 200.9
114.31 K | 203.62
115 K | 204.28
116.37 K | 206.2
118.23 K | 208.83
120 K | 210.86
120.16 K | 211.45
122.08 K | 214.08
125 K | 217.43
125.04 K | 217.8
128.55 K | 221.83
130 K | 223.99
131.51 K | 226.29
134.47 K | 230.41
135 K | 230.55
137.5 K | 234.21
140 K | 237.1
140.45 K | 237.72
143.48 K | 241.61
145 K | 243.64
146.44 K | 245.42
149.4 K | 249.27
150 K | 250.18
152.43 K | 252.82
155 K | 256.7
155.38 K | 257.11
158.34 K | 260.91
160 K | 263.21
161.37 K | 264.59
164.4 K | 269.32
165 K | 269.71
167.42 K | 273.11
170 K | 276.2
170.38 K | 276.93
173.34 K | 280.52
175 K | 282.68
176.44 K | 284.26
179.4 K | 287.73
180 K | 289.15
182.42 K | 292.31
185 K | 295.6
186.48 K | 297.74
190 K | 302.03
190.68 K | 302.64
193.71 K | 306.32
195 K | 308.46
196.73 K | 310.4
199.76 K | 313.83
200 K | 314.86
202.79 K | 317.64
205 K | 321.25
205.75 K | 321.74
208.71 K | 325.63
210 K | 327.63
211.73 K | 329.9
214.76 K | 333.75
215 K | 333.98
217.79 K | 337.53
220 K | 340.32
220.81 K | 341.42
223.77 K | 344.95
225 K | 346.64
226.8 K | 348.56
229.76 K | 352.76
230 K | 352.95
232.79 K | 356.86
235 K | 359.23
235.75 K | 360.47
238.84 K | 363.97
240 K | 365.49
242.01 K | 368.73
245 K | 371.73
245.86 K | 373.07
249.57 K | 377.69
250 K | 377.95
252.6 K | 381.55
255 K | 384.15
255.7 K | 385.19
258.73 K | 388.65
260 K | 390.33
261.82 K | 392.4
264.85 K | 396.6
265 K | 396.49
267.86 K | 400.48
270 K | 402.62
270.92 K | 403.75
273.93 K | 407.18
275 K | 408.73
276.89 K | 410.85
279.85 K | 414.48
280 K | 414.81
282.87 K | 418.25
285 K | 420.87
285.83 K | 421.97
288.79 K | 425.74
290 K | 426.91
291.89 K | 428.76
294.92 K | 432.73
295 K | 432.92
297.94 K | 436.5
298.15 K | 436.69
300 K | 438.9
300.28 K | 439.48
302.83 K | 442.7
305 K | 444.86
305.99 K | 446.12
309.09 K | 450.09
310 K | 450.79
312.18 K | 454.16
315 K | 456.7
315.35 K | 457.58
318.38 K | 461.21
320 K | 462.57
321.54 K | 464.38
324.64 K | 468.15
325 K | 468.42
327.67 K | 471.32
330 K | 474.25
330.76 K | 475.09
333.79 K | 478.57
335 K | 480.04
336.88 K | 481.84
339.91 K | 485.31
340 K | 485.8
343.01 K | 488.64
345 K | 491.54
345.97 K | 491.76
349.05 K | 495.84
350 K | 497.25
352.03 K | 499.11
355 K | 502.92
355.1 K | 502.61
358.14 K | 506.45
360 K | 508.57
361.31 K | 510.02
364.47 K | 513.54
365 K | 514.18
367.57 K | 517.31
370 K | 519.77
370.74 K | 520.43
373.88 K | 524.09
375 K | 525.32
377.03 K | 527.59
380 K | 530.85
380.17 K | 530.85
383.23 K | 534.71
385 K | 536.34
386.16 K | 537.95
389.19 K | 541.27
390 K | 541.8
392.45 K | 544.56
395 K | 547.22
395.47 K | 547.81
400 K | 552.62

From the NIST ThermoML archive (doi:10.1016/j.tca.2012.05.023)
